# From patent US20260053764A1, “COMPOSITION FOR PREVENTING DETERIORATION IN COGNITIVE FUNCTION AND/OR IMPROVING COGNITIVE FUNCTION” (PHARMA FOODS INTERNATIONAL CO., LTD., priority 2020, published 2026)
# Test system: cognitive function of a human
# Experiment: Cognitrax test in placebo-controlled randomized double-blind clinical tests A and B
# Type: in vivo
# Design: Reaction time / Complex attention / Cognitive flexibility / Social acuity / Non-verbal reasoning / Working memory / Continuous attention / Simple attention: scale not given here
# Source text: A Cognitrax test is known as such an examination that can assess a plurality of domains or items of cognitive function. The Cognitrax test is a cognitive function examination service practiced on the Web based on the cognitive function examination technique developed by CNS Vital Signs in the United States. In the Cognitrax test, among a total of 10 types of tests, which are verbal memory test, visual memory test, finger tapping test, symbol digit coding test (SDC test), Stroop test, shifting attention test, continuous performance test, perception of emotion test, reasoning test and four part continuous performance test, a test is carried out in accordance with the purpose of the examination to digitize the examination result regarding each of a total of 16 types of items at most, which are neurocognition index, composite memory, verbal memory, visual memory, psychomotor speed, reaction time, complex attention, cognitive flexibility, processing speed, executive function, social acuity, non-verbal reasoning, working memory, continuous attention, simple attention and motor speed.
# Two types of placebo-controlled randomized double-blind two-group parallel comparison tests were carried out as clinical tests. […] Specifically, capsules comprising 100 mg of dextrin per capsule were used as the placebo food.
# The screening examination was carried out to select 60 subjects for each test (a total of 120 subjects). MMSE (Mini Mental State Examination) is an examination for assessing the degree of progression of dementia or the like based on the score thereof with 30 as the perfect score, wherein dementia is suspected with a score of 23 or lower.
# • (1) Japanese male and female at the age of 40 or higher • (2) People aware of reduction in cognitive function • (3) People who can continuously ingest the test food every day for 12 weeks • (4) People with an MMSE score of 24 or higher • (5) People who have received sufficient explanation of the purpose/content of the clinical test, have the ability to give consent, voluntarily applied to participate in the clinical test with sufficient understanding, and gave consent to the participation in the clinical test on paper
# The total of 120 subjects were randomly divided into test A active group, test A placebo group, test B active group and test B placebo group with 30 subjects in each group. Each subject of the test A active group ingested two capsules of the active food, each subject of the test A placebo group ingested two capsules of the placebo food, each subject of the test B active group ingested one capsule of the active food and each subject of the test B placebo group ingested one capsule of the placebo food.
# Each subject followed the schedule shown in the table below and ingested one or two of the assigned capsules together with water for 12 weeks from two weeks after the initial screening examination. All subjects had no particular instruction during the ingestion period and freely took their meals.
# As shown with ● in the test schedule in Table 1, Cognitrax was carried out a total of five times, which are upon screening, before starting test food sample ingestion, after four weeks of ingestion, after eight weeks of ingestion and after twelve weeks of ingestion, and the RBANS neuropsychological test was carried out a total of two times, which are before staring test food ingestion and after twelve weeks of ingestion.
# [1] = test A 200 mg, before ingestion
# [2] = test A 200 mg, before ingestion, mean ± SD
# [3] = test A, after eight weeks of ingestion
smiles,measurement,setting,value
"NCCCC(=O)O [GABA, γ-aminobutyric acid]",Cognition flexibility: difference between active food and placebo food groups,"test A 200 mg, 4 w",2.1
same,Complex attention: difference between active food and placebo food groups,"test A 200 mg, 4 w",0.6
same,Composite memory: difference between active food and placebo food groups,"test A 200 mg, 4 w",−0.9
same,Continuous attention: difference between active food and placebo food groups,"test A 200 mg, 4 w",1.1
same,Executive function: difference between active food and placebo food groups,"test A 200 mg, 4 w",2.4
same,Motor speed: difference between active food and placebo food groups,"test A 200 mg, 4 w",6.0
same,Non-verbal reasoning: difference between active food and placebo food groups,"test A 200 mg, 4 w",4.2
same,Processing speed: difference between active food and placebo food groups,"test A 200 mg, 4 w",4.1
same,Psychomotor speed: difference between active food and placebo food groups,"test A 200 mg, 4 w",7.1
same,Reaction time: difference between active food and placebo food groups,"test A 200 mg, 4 w",5.0
same,Simple attention: difference between active food and placebo food groups,"test A 200 mg, 4 w",0.9
same,Social acuity: difference between active food and placebo food groups,"test A 200 mg, 4 w",−2.2
same,Verbal memory: difference between active food and placebo food groups,"test A 200 mg, 4 w",0.2
same,Visual memory: difference between active food and placebo food groups,"test A 200 mg, 4 w",−1.4
same,Working memory: difference between active food and placebo food groups,"test A 200 mg, 4 w",3.0
same,Cognitive flexibility,"test A 200 mg, 4 w, mean ± SD",104.4 ± 9.8
same,Executive function,"test A 200 mg, 4 w, mean ± SD",104.5 ± 9.8
same,Non-verbal reasoning,"test A 200 mg, 4 w, mean ± SD",102.6 ± 9.1
same,Reaction time,"test A 200 mg, 4 w, mean ± SD",99.3 ± 0.4
same,Simple attention,"test A 200 mg, 4 w, mean ± SD",100.2 ± 10.5
same,Social acuity,"test A 200 mg, 4 w, mean ± SD",93.2 ± 18.9
same,Working memory,"test A 200 mg, 4 w, mean ± SD",108.5 ± 11.2
same,Cognition flexibility: difference between active food and placebo food groups,"test A 200 mg, 8 w",4.6
same,Complex attention: difference between active food and placebo food groups,"test A 200 mg, 8 w",1.3
same,Composite memory: difference between active food and placebo food groups,"test A 200 mg, 8 w",−2.9
same,Continuous attention: difference between active food and placebo food groups,"test A 200 mg, 8 w",5.6
same,Executive function: difference between active food and placebo food groups,"test A 200 mg, 8 w",4.9
same,Motor speed: difference between active food and placebo food groups,"test A 200 mg, 8 w",3.9
same,Non-verbal reasoning: difference between active food and placebo food groups,"test A 200 mg, 8 w",−2.2
same,Processing speed: difference between active food and placebo food groups,"test A 200 mg, 8 w",3.5
same,Psychomotor speed: difference between active food and placebo food groups,"test A 200 mg, 8 w",5.2
same,Reaction time: difference between active food and placebo food groups,"test A 200 mg, 8 w",−0.6
same,Simple attention: difference between active food and placebo food groups,"test A 200 mg, 8 w",−0.3
same,Social acuity: difference between active food and placebo food groups,"test A 200 mg, 8 w",−0.3
same,Verbal memory: difference between active food and placebo food groups,"test A 200 mg, 8 w",−6.3
same,Visual memory: difference between active food and placebo food groups,"test A 200 mg, 8 w",1.4
same,Working memory: difference between active food and placebo food groups,"test A 200 mg, 8 w",7.2
same,Cognitive flexibility,"test A 200 mg, 8 w, mean ± SD",108.2 ± 8.6
same,Executive function,"test A 200 mg, 8 w, mean ± SD",108.5 ± 8.6
same,Non-verbal reasoning,"test A 200 mg, 8 w, mean ± SD",104.9 ± 12.5
same,Reaction time,"test A 200 mg, 8 w, mean ± SD",94.0 ± 21.9
same,Simple attention,"test A 200 mg, 8 w, mean ± SD",99.2 ± 14.9
same,Social acuity,"test A 200 mg, 8 w, mean ± SD",91.3 ± 20.8
same,Working memory,"test A 200 mg, 8 w, mean ± SD",113.4 ± 9.7
same,Cognition flexibility: difference between active food and placebo food groups,"test A 200 mg, 12 w",1.4
same,Complex attention: difference between active food and placebo food groups,"test A 200 mg, 12 w",1.7
same,Composite memory: difference between active food and placebo food groups,"test A 200 mg, 12 w",−5.0
same,Continuous attention: difference between active food and placebo food groups,"test A 200 mg, 12 w",3.7
same,Executive function: difference between active food and placebo food groups,"test A 200 mg, 12 w",1.4
same,Motor speed: difference between active food and placebo food groups,"test A 200 mg, 12 w",6.1
same,Non-verbal reasoning: difference between active food and placebo food groups,"test A 200 mg, 12 w",6.8
same,Processing speed: difference between active food and placebo food groups,"test A 200 mg, 12 w",3.1
same,Psychomotor speed: difference between active food and placebo food groups,"test A 200 mg, 12 w",6.4
same,Reaction time: difference between active food and placebo food groups,"test A 200 mg, 12 w",5.5
same,Simple attention: difference between active food and placebo food groups,"test A 200 mg, 12 w",5.5
same,Social acuity: difference between active food and placebo food groups,"test A 200 mg, 12 w",−8.0
same,Verbal memory: difference between active food and placebo food groups,"test A 200 mg, 12 w",−3.1
same,Visual memory: difference between active food and placebo food groups,"test A 200 mg, 12 w",−4.6
same,Working memory: difference between active food and placebo food groups,"test A 200 mg, 12 w",4.2
same,Cognitive flexibility,"test A 200 mg, 12 w, mean ± SD",107.5 ± 7.3
same,Continuous attention,"test A 200 mg, 12 w, mean ± SD",112.9 ± 8.2
same,Reaction time,"test A 200 mg, 12 w, mean ± SD",100.7 ± 10.4
same,Simple attention,"test A 200 mg, 12 w, mean ± SD",97.9 ± 17.0
same,Social acuity,"test A 200 mg, 12 w, mean ± SD",89.0 ± 23.1
same,Cognition flexibility: difference between active food and placebo food groups,[1],4.4
same,Complex attention: difference between active food and placebo food groups,[1],3.4
same,Composite memory: difference between active food and placebo food groups,[1],5.6
same,Continuous attention: difference between active food and placebo food groups,[1],3.3
same,Executive function: difference between active food and placebo food groups,[1],4.5
same,Motor speed: difference between active food and placebo food groups,[1],6.7
same,Non-verbal reasoning: difference between active food and placebo food groups,[1],3.7
same,Processing speed: difference between active food and placebo food groups,[1],3.6
same,Psychomotor speed: difference between active food and placebo food groups,[1],7.1
same,Reaction time: difference between active food and placebo food groups,[1],4.5
same,Simple attention: difference between active food and placebo food groups,[1],2.2
same,Social acuity: difference between active food and placebo food groups,[1],−6.4
same,Verbal memory: difference between active food and placebo food groups,[1],4.6
same,Visual memory: difference between active food and placebo food groups,[1],4.0
same,Working memory: difference between active food and placebo food groups,[1],3.5
same,Cognitive flexibility,[2],102.5 ± 9.4
same,Complex attention,[2],105.6 ± 9.8
same,Executive function,[2],102.8 ± 9.0
same,Non-verbal reasoning,[2],102.4 ± 14.9
same,Reaction time,[2],96.6 ± 14.5
same,Simple attention,[2],97.9 ± 17.4
same,Social acuity,[2],87.9 ± 17.9
same,"scores regarding continuous attention, GABA group compared to the placebo group",[3],significant improvement
same,"scores regarding working memory, GABA group compared to the placebo group",[3],significant improvement
same,"scores regarding reasoning, GABA group compared to the placebo group","test A, after twelve weeks of ingestion",significant improvement
